Laboratory results taken from patent US10562912B2 (C&C Research Laboratories, priority 2013, dated 2020).

Columns and labels:
Assay type in all cases: cell-based
[1] = system: LNCaP; test: Cell growth inhibition assay, prostate cancer cell line LNCaP (medium with 10 ng/mL IL-6); conditions: Homo sapiens, medium supplemented with 10 ng/mL of IL-6, 10,000 cells/well
[2] = system: DU-145; test: Cell growth inhibition assay, prostate cancer cell line DU-145; conditions: Homo sapiens, DU-145 prostate cancer cell line
Outline: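 Luminescent CellTiter-Glo readout of viable cells after 72–96 h compound exposure (37° C., 5% CO2). Seeding: 3,000 cells/well for DU-145 and HCT116, 5,000 cells/well for SW626. Controls were medium without cells and 0.1% DMSO vehicle.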

[3] = system: HEL92.1.7; test: Cell growth inhibition assay, blood cancer cell line HEL92.1.7; conditions: Homo sapiens, HEL 92.1.7, HEL92.1.7 blood cancer cell line
Experimental: The inhibitory effects of the compounds of the present invention against the growth of cancer cells were evaluated as shown below. The cancer cell lines including stomach cancer cell line (AGS), breast cancer cell lines (MDA-MB-231, MDA-MB-468, and BT-549), prostate cancer cell lines (LNCaP and DU-145), colon cancer cell line (HCT116), ovarian cancer cell line (SW626), liver cancer cell line (Hep3B), kidney cancer cell line (ACHN), lung cancer cell line (NCI-H23) and blood cancer cell lines (HEL92.1.7 and U266) were cultured under the protocol provided by each supplier. A medium supplemented with 10 ng/mL of IL-6 was used for LNCaP, a prostate cancer cell line, when treated with a drug. Each type of cells to be used in experiments were sub-cultured in a 96-well plate by counting the exact number of cells using Tali™ Image-based Cytometer (Life Technologies). In a 96-well plate, AGS, HCT116, and DU-145 were employed with 3,000 cells/well; NCI-H23, SW626, Hep3B, ACHN, BT-549, MDA-MB-231, HEL92.1.7, and U266 were employed with 5,000 cells/well; and LNCaP and MDA-MB-468 were employed with 10,000 cells/well. The cells were treated with the compounds listed in Examples which were diluted in various concentrations. Upon completion of the compounds treatment, AGS, HCT116, SW626, DU145, NCI-H23, Hep3B, ACHN, BT-549, LNCaP, HEL92.1.7, and U266 cells were cultured at 37° C. under 5% CO2 for from 72 to 96 hours, and MDA-MB-231 and MDA-MB-468 cells were cultured at 37° C. in air for from 72 to 96 hours. Subsequently, the cells were observed under microscope and drug precipitation and particular findings were investigated and recorded. And then, the 96-well plate was placed at room temperature for 30 minutes, added with 20 μL/well of CellTiter-Glo solution (Cat No. G7573, Promega) and shaken for 10 minutes, followed by being subjected to the measurement using PHERAstar™ microplate reader (BMG LABTECH) according to the supplier's general luminometer protocol. Wells where only culture liquid added without cell plating were used as a negative control, whereas wells where culture liquid containing 0.1% DMSO instead of the compounds listed in Examples were used as a positive control.

[4] = biological target: T1, STAT3 (Homo sapiens, UniProt P40763); test: STAT3 reporter gene assay (luciferase), LNCaP stable cell line (pSTAT3-TA-luc), IL-6 stimulation
T1 construct: plasmid pSTAT3-TA-luc), which contains a stably operating STAT3 promoter; endogenous in cells
T1 sequence (P40763 whole entry): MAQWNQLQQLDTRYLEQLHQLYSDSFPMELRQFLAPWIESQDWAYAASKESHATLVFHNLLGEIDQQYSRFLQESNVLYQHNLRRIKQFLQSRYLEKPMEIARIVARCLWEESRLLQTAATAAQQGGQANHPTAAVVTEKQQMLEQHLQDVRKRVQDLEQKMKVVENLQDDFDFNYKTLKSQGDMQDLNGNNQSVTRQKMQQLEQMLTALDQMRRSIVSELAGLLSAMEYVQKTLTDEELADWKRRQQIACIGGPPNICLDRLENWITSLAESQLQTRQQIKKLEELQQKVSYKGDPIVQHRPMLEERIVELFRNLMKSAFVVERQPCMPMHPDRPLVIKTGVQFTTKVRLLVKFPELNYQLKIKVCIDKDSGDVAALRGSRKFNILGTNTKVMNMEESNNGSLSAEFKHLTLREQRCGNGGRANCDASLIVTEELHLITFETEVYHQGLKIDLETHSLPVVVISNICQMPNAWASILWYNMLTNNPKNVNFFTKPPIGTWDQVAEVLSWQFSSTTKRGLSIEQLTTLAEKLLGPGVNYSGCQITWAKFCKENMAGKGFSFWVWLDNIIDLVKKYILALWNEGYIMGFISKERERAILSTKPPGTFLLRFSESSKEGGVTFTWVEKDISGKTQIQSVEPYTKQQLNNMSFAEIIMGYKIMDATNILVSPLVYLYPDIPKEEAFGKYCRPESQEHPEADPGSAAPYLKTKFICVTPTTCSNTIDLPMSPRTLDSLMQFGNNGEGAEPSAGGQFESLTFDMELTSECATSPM
Outline: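 Cytotoxicity was run on a duplicate plate with CellTiter-Glo, while the other plate gave luciferase read-outs from lysed LNCaP pSTAT3-TA-luc reporter cells. Cells were treated with graded compound concentrations plus IL-6 (10 ng/mL final) for 24–48 h in 3% DCC-FBS medium. Unstimulated and stimulated wells served as negative and positive controls.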

CC(C)Oc1cc(OC(F)(F)F)cc(C(C)(C)c2cc(Cl)cc(NC(=O)c3cc4c(F)c(NS(C)(=O)=O)ccc4s3)c2)c1 [Example 93, N-(3-chloro-5-(2-(3-isopropoxy-5-(trifluoromethoxy)phenyl)propan-2-yl)phenyl)-4-fluoro-5-(methylsulfonamido)benzo[b]thiophene-2-carboxamide]
IC50 [1]: 0.055 µM | IC50 [2]: 0.021 µM | IC50 [3]: 0.12 µM | IC50 [4]: 0.091 µM

CN(C)CCOc1cc(OC(F)(F)F)cc(C(C)(C)c2cc(Cl)cc(NC(=O)c3cc4cc(NS(C)(=O)=O)ccc4s3)c2)c1 [Example 94, N-(3-chloro-5-(2-(3-(2-(dimethylamino)ethoxy)-5-(trifluoromethoxy)phenyl)propan-2-yl)phenyl)-5-(methylsulfonamido)benzo[b]thiophene-2-carboxamide]
IC50 [1]: 0.27 µM | IC50 [2]: 0.2 µM | IC50 [3]: 0.35 µM | IC50 [4]: 1.12 µM

CC(C)(C)OC(=O)N1CCC(Oc2cc(OC(F)(F)F)cc(C(C)(C)c3cc(Cl)cc(NC(=O)c4cc5cc(NS(C)(=O)=O)ccc5s4)c3)c2)CC1 [Example 95, tert-butyl 4-(3-(2-(3-chloro-5-(5-(methylsulfonamido)benzo[b]thiophene-2-carboxamido)phenyl)propan-2-yl)-5-(trifluoromethoxy)phenoxy)piperidine-1-carboxylate]
IC50 [1]: 0.015 µM | IC50 [2]: 0.011 µM | IC50 [3]: 0.69 µM | IC50 [4]: 0.11 µM

CC(C)(c1cc(Cl)cc(NC(=O)c2cc3cc(NS(C)(=O)=O)ccc3s2)c1)c1cc(OC2CCNCC2)cc(OC(F)(F)F)c1 [Example 96, N-(3-chloro-5-(2-(3-(piperidin-4-yloxy)-5-(trifluoromethoxy)phenyl)propan-2-yl)phenyl)-5-(methylsulfonamido)benzo[b]thiophene-2-carboxamide]
IC50 [1]: > 1.1 µM | IC50 [2]: > 1.1 µM | IC50 [3]: > 1.1 µM | IC50 [4]: 3.4 µM

CC(C)Oc1cc(OC(F)(F)F)cc(C(C)(C)c2cc(Cl)cc(NC(=O)c3cc4cc(NS(=O)(=O)N5CCOCC5)ccc4s3)c2)c1 [Example 103, N-(3-chloro-5-(2-(3-isopropoxy-5-(trifluoromethoxy)phenyl)propan-2-yl)phenyl)-5-(morpholine-4-sulfonamido)benzo[b]thiophene-2-carboxamide]
IC50 [1]: 0.035 µM | IC50 [2]: 0.045 µM | IC50 [3]: 0.16 µM | IC50 [4]: 0.11 µM

Cn1cc(Cc2cc(OC(F)(F)C(F)F)cc(C(C)(C)c3cc(Cl)cc(NC(=O)c4cc5cc(NS(C)(=O)=O)ccc5s4)c3)c2)cn1 [Example 138, N-(3-chloro-5-(2-(3-((1-methyl-1H-pyrazol-4-yl)methyl)-5-(1,1,2,2-tetrafluoroethoxy)phenyl)propan-2-yl)phenyl)-5-(methylsulfonamido) benzo[b]thiophene-2-carboxamide]
IC50 [1]: 0.054 µM | IC50 [2]: 0.018 µM | IC50 [3]: 0.26 µM | IC50 [4]: 0.02 µM

CN(C)S(=O)(=O)N1CCN(Cc2cc(OC(F)(F)C(F)F)cc(C(C)(C)c3cc(Br)cc(NC(=O)c4cc5cc(NS(C)(=O)=O)ccc5s4)c3)c2)CC1 [Example 139, N-(3-bromo-5-(2-(3-((4-(N,N-dimethylsulfamoyl)piperazin-1-yl)methyl)-5-(1,1,2,2-tetrafluoroethoxy)phenyl)propan-2-yl)phenyl)-5-(methylsulfonamido)benzo[b]thiophene-2-carboxamide]
IC50 [1]: 0.17 µM | IC50 [2]: 0.073 µM | IC50 [3]: 0.69 µM | IC50 [4]: 0.11 µM

CC(C)(c1cc(F)cc(NC(=O)c2cc3cc(NS(C)(=O)=O)ccc3s2)c1)c1cc(CN2CCOCC2)cc(OC(F)(F)C(F)F)c1 [Example 140, N-(3-fluoro-5-(2-(3-(morpholinomethyl)-5-(1,1,2,2-tetrafluoroethoxy)phenyl)propan-2-yl)phenyl)-5-(methylsulfonamido)benzo[b]thiophene-2-carboxamide]
IC50 [1]: 0.13 µM | IC50 [2]: 0.053 µM | IC50 [3]: 0.3 µM | IC50 [4]: 0.09 µM

CC(C)(c1cc(Br)cc(NC(=O)c2cc3cc(NS(C)(=O)=O)ccc3s2)c1)c1cc(CN2CCN(C3COC3)CC2)cc(OC(F)(F)C(F)F)c1 [Example 141, N-(3-bromo-5-(2-(3-((4-(oxetan-3-yl)piperazin-1-yl)methyl)-5-(1,1,2,2-tetrafluoroethoxy)phenyl)propan-2-yl)phenyl)-5-(methylsulfonamido)benzo[b]thiophene-2-carboxamide]
IC50 [1]: 0.36 µM | IC50 [2]: 0.14 µM | IC50 [3]: 1.05 µM | IC50 [4]: 0.38 µM

CC(C)Oc1cc(-c2ccnn2C)cc(C(C)(C)c2cc(Cl)cc(NC(=O)c3cc4cc(NS(C)(=O)=O)ccc4s3)c2)c1 [Example 142, N-(3-chloro-5-(2-(3-isopropoxy-5-(1-methyl-1H-pyrazol-5-yl)phenyl)propan-2-yl)phenyl)-5-(methylsulfonamido)benzo[b]thiophene-2-carboxamide]
IC50 [1]: 0.33 µM | IC50 [2]: 0.09 µM | IC50 [3]: 0.33 µM | IC50 [4]: 0.13 µM

CC(C)Oc1cc(-c2cnn(C)c2)cc(C(C)(C)c2cc(Cl)cc(NC(=O)c3cc4cc(NS(C)(=O)=O)ccc4s3)c2)c1 [Example 143, N-(3-chloro-5-(2-(3-isopropoxy-5-(1-methyl-1H-pyrazol-4-yl)phenyl)propan-2-yl)phenyl)-5-(methylsulfonamido)benzo[b]thiophene-2-carboxamide]
IC50 [1]: 0.47 µM | IC50 [2]: 0.18 µM | IC50 [3]: 0.48 µM | IC50 [4]: 0.29 µM

CC(C)Oc1cc(N2CC[N+](C)([O-])CC2)cc(C(C)(C)c2cc(Cl)cc(NC(=O)c3cc4cc(NS(C)(=O)=O)ccc4s3)c2)c1 [Example 144]
IC50 [1]: 2.6 µM | IC50 [2]: 1 µM | IC50 [3]: > 1.1 µM | IC50 [4]: 5.2 µM

CC(C)Oc1cc(N2CCOCC2)cc(C(C)(C)c2cc(Cl)cc(NC(=O)c3cc4cc(NS(C)(=O)=O)ccc4s3)c2)c1 [Example 145, N-(3-chloro-5-(2-(3-isopropoxy-5-morpholinophenyl)propan-2-yl)phenyl)-5-(methylsulfonamido)benzo[b]thiophene-2-carboxamide]
IC50 [1]: 0.04 µM | IC50 [2]: 0.06 µM | IC50 [3]: 0.16 µM | IC50 [4]: 0.067 µM

CC(C)Oc1cc(N2CCCC2)cc(C(C)(C)c2cc(Cl)cc(NC(=O)c3cc4cc(NS(C)(=O)=O)ccc4s3)c2)c1 [Example 146, N-(3-chloro-5-(2-(3-isopropoxy-5-(pyrrolidin-1-yl)phenyl)propan-2-yl)phenyl)-5-(methylsulfonamido)benzo[b]thiophene-2-carboxamide]
IC50 [1]: 0.022 µM | IC50 [2]: 0.019 µM | IC50 [3]: 0.32 µM | IC50 [4]: 0.073 µM

CC(C)Oc1cc(N2CCN(C)CC2)cc(C(C)(C)c2cc(Cl)cc(NC(=O)c3cc4cc(NS(C)(=O)=O)ccc4s3)c2)c1 [Example 147, N-(3-chloro-5-(2-(3-isopropoxy-5-(4-methylpiperazin-1-yl)phenyl)propan-2-yl)phenyl)-5-(methylsulfonamido)benzo[b]thiophene-2-carboxamide]
IC50 [1]: 0.8 µM | IC50 [2]: 0.47 µM | IC50 [3]: 1.04 µM | IC50 [4]: 0.67 µM

COc1cc(OC(F)(F)F)cc(C(C)(C)c2cc(Cl)nc(NC(=O)c3cc4cc(NS(C)(=O)=O)ccc4s3)c2)c1 [Example 148, N-(6-chloro-4-(2-(3-methoxy-5-(trifluoromethoxy)phenyl)propan-2-yl)pyridin-2-yl)-5-(methylsulfonamido)benzo[b]thiophene-2-carboxamide]
IC50 [1]: 0.58 µM | IC50 [2]: 0.38 µM | IC50 [3]: 1 µM | IC50 [4]: > 10 µM

COc1cc(OC(F)(F)F)cc(C(C)(C)c2cc(NC(=O)c3cc4cc(NS(C)(=O)=O)ccc4s3)cc(Cl)n2)c1 [Example 149, N-(2-chloro-6-(2-(3-methoxy-5-(trifluoromethoxy)phenyl)propan-2-yl)pyridin-4-yl)-5-(methylsulfonamido)benzo[b]thiophene-2-carboxamide]
IC50 [1]: 0.05 µM | IC50 [2]: 0.03 µM | IC50 [3]: 0.14 µM | IC50 [4]: 0.07 µM
